The source of these data is ChEMBL document CHEMBL5500414 (J Med Chem, 2024).

SMILES strings stand for the structures. pIC50, pKi: −log10 of the molar value. Some results are limits rather than exact numbers.

Series [1] addresses Induced myeloid leukemia cell differentiation protein Mcl-1/BH3-interacting domain death agonist (Homo sapiens, UniProt Q07820).
Description: Inhibition of MCL-1 (unknown origin)/FAM-BID (unknown origin) interaction measured by fluorescence polarization assay
Series [2] has as its target T1, Bcl-2-related protein A1 (Homo sapiens, UniProt Q16548).
T1 sequence (Q16548 whole entry): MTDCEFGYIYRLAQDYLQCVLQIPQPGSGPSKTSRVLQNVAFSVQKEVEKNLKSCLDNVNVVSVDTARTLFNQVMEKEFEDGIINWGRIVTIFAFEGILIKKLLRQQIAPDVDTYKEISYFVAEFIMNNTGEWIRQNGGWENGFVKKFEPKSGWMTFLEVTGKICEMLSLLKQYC
Briefly: Binding affinity to wild type human BFL-1 assessed as inhibition constant by SPR assay.

A further series deals with T2, BCL2A1/BID (Homo sapiens, UniProt Q16548).
T2 sequence (Q16548 whole entry): T1 sequence (Q16548 whole entry)
T2 sequence (P55957 whole entry): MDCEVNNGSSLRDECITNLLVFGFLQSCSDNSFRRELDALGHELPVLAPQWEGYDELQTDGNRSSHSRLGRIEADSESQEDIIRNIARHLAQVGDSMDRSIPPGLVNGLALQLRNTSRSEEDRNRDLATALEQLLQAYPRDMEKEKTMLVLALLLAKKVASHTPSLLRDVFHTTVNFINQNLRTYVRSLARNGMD

Series [3] is described as follows: Glutathione reactivity assessed as half life.
Series [4] deals with Bcl-2-related protein A1 (Homo sapiens, UniProt Q16548, C55A). Briefly: Binding affinity to BFL-1 C55A mutant (unknown origin) assessed as inhibition constant by fluorescence polarization assay.
Chain of Bcl-2-related protein A1 (Homo sapiens, UniProt Q16548, C55A) (Q16548 whole entry C55A): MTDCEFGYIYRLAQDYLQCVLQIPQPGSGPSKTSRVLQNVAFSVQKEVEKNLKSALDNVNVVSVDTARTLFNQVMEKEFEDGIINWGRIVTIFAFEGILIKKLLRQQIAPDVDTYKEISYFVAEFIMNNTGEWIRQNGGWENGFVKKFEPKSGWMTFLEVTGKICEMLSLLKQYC
For the next series, the system named is MV4-11. Briefly: Antiproliferative activity against human MV4-11 cells expressing high BCL-2 assessed as cell viability measured after 72 hrs by Cell Counting Kit-8 assay. As to conditions: MV4-11, 72 h.
For another series, the system named is Pfeiffer. Description: Antiproliferative activity against human Pfeiffer cells expressing high BCL-2/BFL-1 assessed as cell viability measured after 72 hrs by Cell Counting Kit-8 assay.
The target of series [5] is Induced myeloid leukemia cell differentiation protein Mcl-1 (Homo sapiens, UniProt Q07820). Briefly: Binding affinity to MCL-1 (unknown origin) assessed as inhibition constant by time-resolved fluorescence resonance energy transfer binding affinity assays.
Chain of Induced myeloid leukemia cell differentiation protein Mcl-1 (Q07820 whole entry): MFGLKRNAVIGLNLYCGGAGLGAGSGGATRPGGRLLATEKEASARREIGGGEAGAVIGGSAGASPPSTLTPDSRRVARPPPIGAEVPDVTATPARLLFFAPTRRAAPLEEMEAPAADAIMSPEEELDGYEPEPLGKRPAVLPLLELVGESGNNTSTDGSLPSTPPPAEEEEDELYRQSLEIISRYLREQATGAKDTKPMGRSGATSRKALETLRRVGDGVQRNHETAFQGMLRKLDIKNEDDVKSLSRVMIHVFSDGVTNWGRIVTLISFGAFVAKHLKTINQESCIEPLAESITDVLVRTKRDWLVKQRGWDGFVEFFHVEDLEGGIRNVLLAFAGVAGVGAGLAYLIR

Chain of Induced myeloid leukemia cell differentiation protein Mcl-1/BH3-interacting domain death agonist (Q07820 whole entry, one chain of several, the tested form may be a part): as the sequence (Q07820 whole entry) above

As to `C=CC(=O)Nc1ccc2c(c1)CCC(CN1CCN(c3ccc(C(=O)O)c(Oc4cnc5[nH]ccc5c4)c3)CC1)=C2c1ccc(Cl)cc1CC`, the pKi is 5.90 in series [1], 5.71 at Bcl-2-related protein A1 [2], 6.98 at BCL2A1/BID and 5.86 at Bcl-2-related protein A1 [4]. The half-life in series [3] is 4.27 h. The pIC50 in the series with MV4-11 was 4.90; with Pfeiffer it was 5.16.
As to `CC1(C)CCC(CN2CCN(c3ccc(C(=O)NS(=O)(=O)c4ccc(NCC5CCOCC5)c([N+](=O)[O-])c4)c(Oc4cnc5[nH]ccc5c4)c3)CC2)=C(c2ccc(Cl)cc2)C1` [VENETOCLAX], the pKi in series [1] is 5.43; in series [5] it was under 6.35. The pIC50 in the series with MV4-11 is 6.36; with Pfeiffer it was 5.20.
Regarding `C=CC(=O)Nc1cc(Nc2nccc(-c3cn(C)c4ccccc34)n2)c(OC)cc1N(C)CCN(C)C` [OSIMERTINIB], the half-life in series [3] was 0.51 h.
